One data set has as its system U-2 OS. Kind of data set: Monolayer cell culture IC50 (CellTiter-Glo viability), U-2 OS. The class given is cell-based. Conditions: for pIC50: Sarcoma, U-2 OS, monolayer, 72 hours treatment, average of three replications; for IC50: Homo sapiens, U2OS, 72 h. How it is done: (§1) Cancer cell lines listed in Table 1 were subjected for testing anti-cancer potency or the half maximal inhibitory concentration (IC50) of the D-Actinomycin (DACT) molecular complexes.
(§2) The SK-ES-1, U-2 OS, and SAOS-2 cells were cultured in a growth medium that is ATCC-formulated McCoy's 5a Medium Modified, Catalog No. 30-2007. The PC-3, PANC-1, SK-Mel-5, A549, H460, and H1299 were cultured in a growth medium that is ATCC-formulated Dulbecco's Modified Eagle's Medium (DMEM), Catalog No. 30-2002. The cells were seeded on 96-well microtiter plates with 3500 cells per well and cultured in an incubator (Model 3120, Thermo Scientific, USA) with a constant temperature at 37° C. and 5% carbon dioxide (CO2) gas for 24 hours.
(§3) The new DACT-molecular complexes were made into a series with concentration of 200 nM to 40 nM, 8 nM, 1.6 nM, 0.32 nM, and 0.064 nM. 100 μl of each solution was then added into each well to bring out the final concentration of the drug treatment at 100 nM, 20 nM, 4 nM, 0.8 nM, 0.16 nM, or 0.032 nM, respectively.
(§4) The treated cells in the 96 well plate was then further cultured at the same conditions for 72 hours and then subjected for a final cell viability measurement. The measurement used a homogeneous method to determine the number of metabolically active cells presented in each of treatments. A testing reagent for the measurement is a mixture solution of the CellTiter-Glo® 2.0 reagent (CTG, Promega Cat #G9243, USA) and growth medium in 1:1 ratio in this respect.
(§5) The 96-well plate with the new molecular complex treated cells was taken out from incubator after the 72 hours of incubation, and the treatment solution in each well was removed using a multichannel pipette, and 100 μl of the testing reagent were added into each well. The plate was then placed on a plate shaker for 15 min. The plate was covered with a piece of aluminum foil to protect the CTG luminescence during the shaking time.
(§6) Then 90 μl of the 100 μl testing reagent were transferred into an opaque-walled 96-well plate for the CTG luminescence reading on a plate reader (SynergyH4 Hybrid Reader, Biotek, USA). The luminescence intensity of each treatment was positively correlated with the number of cells survived during the treatments.
(§7) All the treatment data was normalized by comparing with the control samples that had only growth medium without any molecular complexes. The half maximal inhibitory concentration (IC50) data was calculated using the nonlinear regression model and dose-responses (inhibition) curve built in the software. Each of treatments was performed in three replications each time and repeated three times for validation. The IC50 average […] (Avg) and standard deviation (STDV) were calculated based on the three replications.
(In general: ATP-based viability assays read luminescence as a measure of living cells.)

Another data set has as its system SK-Mel-5. The data set is described as follows: Monolayer cell culture IC50 (CellTiter-Glo viability), SK-Mel-5. It counts as cell-based. The following applies: for pIC50: Skin, SK-Mel-5, monolayer, 72 hours treatment, average of three replications; for IC50: Homo sapiens, SK-MEL-5, 72 h. As to the method: as §1, §2, §3, §4, §5, §6, §7
A further data set relates to PC-3. Kind of data set: Monolayer cell culture IC50 (CellTiter-Glo viability), PC-3. It counts as cell-based. The following applies: for pIC50: Prostate, PC-3, monolayer, 72 hours treatment, average of three replications; for IC50: Homo sapiens, PC-3, 72 h. As to the method:
as §1, §2, §3, §4, §5, §6, §7

For the next data set, the system named is PANC-1. The data set is described as follows: Monolayer cell culture IC50 (CellTiter-Glo viability), PANC-1. The class given is cell-based. Conditions: for pIC50: Pancreatic, PANC-1, monolayer, 72 hours treatment, average of three replications; for IC50: Homo sapiens, PANC-1, 72 h. How it is done: as §1, §2, §3, §4, §5, §6, §7
Data set [1] is described as follows: Accelerated stability studies (PXRD physical form stability). The class given is physicochemical. Conditions: accelerated conditions 75% humidity and 40° C., one year, by PXRD. As to the method: Stability studies of the DACT novel forms were conducted using accelerated conditions (75% humidity and 40° C.) of which are obvious to the artisan in the field, for more than one year. […] Selected data of the novel complexes of DACT:methylparaben, propylparaben and diphenic acid proves this point.

In a further data set the test system is SK-ES-1. The data set is described as follows: Monolayer cell culture IC50 (CellTiter-Glo viability), SK-ES-1. The class given is cell-based, human. The following applies: Sarcoma, SK-ES-1, monolayer, 72 hours treatment, average of three replications. As to the method:
as §1, §2, §3, §4, §5, §6, §7

A further data set concerns A549. The data set is described as follows: Monolayer cell culture IC50 (CellTiter-Glo viability), A549. The class given is cell-based. The following applies: Homo sapiens, Lung, 72 hours treatment, average of three replications. As to the method: as §1, §2, §3, §4, §5, §6, §7
For another data set, the system named is H460. The data set is described as follows: Monolayer cell culture IC50 (CellTiter-Glo viability), H460. Conditions: Homo sapiens, NCI-H460, Lung, 72 hours treatment, average of three replications. The class given is cell-based. As to the method: as §1, §2, §3, §4, §5, §6, §7
A further data set relates to H1299. The data set is described as follows: Monolayer cell culture IC50 (CellTiter-Glo viability), H1299. Conditions: Homo sapiens, NCI-H1299, Lung, 72 hours treatment, average of three replications. It counts as cell-based. As to the method: as §1, §2, §3, §4, §5, §6, §7
The conditions of data set [2]: in vivo; cited from earlier work.
The conditions of data set [3]: in vivo; cited from earlier work. This is another data set of the same source.
[4] abbreviates: Test I, read-out: IC50 Test (I) Avg.
Where [5] appears, read: Test II, read-out: IC50 Test (II) Avg.
Setting [6] is: Test III, read-out: IC50 Test (III) Avg.
[7] abbreviates: read-out: IC50 Test (I) Avg (nM).
Where [8] appears, read: read-out: IC50 Test (II) Avg (nM).
[9] abbreviates: read-out: IC50 Test (III) Avg (nM).

Results on four compounds are retold here after patent US11319311B2, “Crystalline forms of Actinomycin D for treatment of cancer” (TRANSGENEX NANOBIOTECH, INC., priority 2018, dated 2022).

SMILES strings stand for the structures. pIC50: −log10 of the molar value. Read-outs that look alike come from different tables or passages of the source.

A word on the pIC50: it is the IC50 on a negative log10 scale, so that one unit is a factor of ten. In the case of `Cc1c2oc3c(C)ccc(C(=O)NC4C(=O)NC(C(C)C)C(=O)N5CCCC5C(=O)N(C)CC(=O)N(C)C(C(C)C)C(=O)OC4C)c3nc-2c(C(=O)NC2C(=O)NC(C(C)C)C(=O)N3CCCC3C(=O)N(C)CC(=O)N(C)C(C(C)C)C(=O)OC2C)c(N)c1=O.O=C(O)c1ccccc1-c1ccccc1C(=O)O` (centres unmarked) [DACT-diphenic Acid], the negative-log IC50 (pIC50) with U-2 OS (setting [4]) was 8.36; with U-2 OS (setting [5]), 8.37; with U-2 OS (setting [6]) it was 8.57; with SK-Mel-5 (setting [4]), 9.38; in the data set on SK-Mel-5 (setting [5]), 9.49; in the data set on SK-Mel-5 (setting [6]) it was 8.64. Moreover, the negative logarithm of the IC50 (pIC50) in the data set with PC-3 (setting [4]) is 8.20; in the data set on PC-3 (setting [5]) it was 8.23; with PC-3 (setting [6]) it was 8.18; in the data set on PANC-1 (setting [4]), 8.27; in the data set with PANC-1 (setting [5]), 8.49; in the data set on PANC-1 (setting [6]), 8.42. Further, in [1], the physical form stability entry is listed as “stable”.

By IC50 is commonly meant the point on the concentration scale where inhibition reaches its midpoint. Turning to `Cc1c2oc3c(C)ccc(C(=O)N[C@@H]4C(=O)N[C@H](C(C)C)C(=O)N5CCC[C@H]5C(=O)N(C)CC(=O)N(C)[C@@H](C(C)C)C(=O)O[C@@H]4C)c3nc-2c(C(=O)N[C@@H]2C(=O)N[C@H](C(C)C)C(=O)N3CCC[C@H]3C(=O)N(C)CC(=O)N(C)[C@@H](C(C)C)C(=O)O[C@@H]2C)c(N)c1=O` [DACT, reference compound], the pIC50 in the data set with SK-ES-1 (Homo sapiens, SK-ES1, Test I, read-out: IC50 Test (I) Avg) was 8.99; with SK-ES-1 (Homo sapiens, SK-ES1, Test II, read-out: IC50 Test (II) Avg), 9.25; with SK-ES-1 (Homo sapiens, SK-ES1, Test III, read-out: IC50 Test (III) Avg), 9.20; in the data set with A549 (setting [4]), 8.79; with A549 (setting [5]) it was 8.73; in the data set on A549 (setting [6]), 8.79. The pIC50 with H460 (setting [4]) was 9.46; in the data set with H460 (setting [5]) it was 9.46; in the data set on H460 (setting [6]), 9.46; with H1299 (setting [4]), 8.75; in the data set with H1299 (setting [5]) it was 8.94; in the data set on H1299 (setting [6]), 8.89. The concentration for half-maximal inhibition (IC50) with U-2 OS (setting [7]) was determined as 5.29 nM; in the data set on U-2 OS (setting [8]) it was 5.63 nM; with U-2 OS (setting [9]), 2.62 nM; with SK-Mel-5 (setting [7]) it was 0.61 nM; in the data set on SK-Mel-5 (setting [8]), 0.5 nM; with SK-Mel-5 (setting [9]) it was 2.9 nM. Moreover, the IC50 was 8.81 nM in the data set on PC-3 (setting [7]); 7 nM with PC-3 (setting [8]); 7.28 nM in the data set on PC-3 (setting [9]); 5.68 nM with PANC-1 (setting [7]); 4.56 nM with PANC-1 (setting [8]); 4.74 nM in the data set with PANC-1 (setting [9]). Besides, in data set [2], the “absorption from the GI tract” value is given as “poorly absorbed”. For the same compound, the irritation to tissues entry in data set [3] is “extremely irritating to tissues”.

On to `Cc1c2oc3c(C)ccc(C(=O)NC4C(=O)NC(C(C)C)C(=O)N5CCCC5C(=O)N(C)CC(=O)N(C)C(C(C)C)C(=O)OC4C)c3nc-2c(C(=O)NC2C(=O)NC(C(C)C)C(=O)N3CCCC3C(=O)N(C)CC(=O)N(C)C(C(C)C)C(=O)OC2C)c(N)c1=O.NC(CS)C(=O)O` (racemic) [DACT:DL-cysteine], for which the physical form stability result in data set [1] is reported as “shown physical stability”.

As to `COC(=O)c1ccc(O)cc1.Cc1c2oc3c(C)ccc(C(=O)NC4C(=O)NC(C(C)C)C(=O)N5CCCC5C(=O)N(C)CC(=O)N(C)C(C(C)C)C(=O)OC4C)c3nc-2c(C(=O)NC2C(=O)NC(C(C)C)C(=O)N3CCCC3C(=O)N(C)CC(=O)N(C)C(C(C)C)C(=O)OC2C)c(N)c1=O` (centres unmarked) [DACT-methylparaben], the pIC50 with SK-ES-1 (setting [4]) was 9.15; in the data set on SK-ES-1 (setting [5]), 9.29; in the data set on SK-ES-1 (setting [6]), 9.24; with U-2 OS (setting [4]) it was 8.37; with U-2 OS (setting [5]), 8.36; with U-2 OS (setting [6]), 8.64. In addition, the pIC50 with SK-Mel-5 (setting [4]) was 9.44; in the data set on SK-Mel-5 (setting [5]), 9.43; in the data set with SK-Mel-5 (setting [6]) it was 8.64; in the data set on PC-3 (setting [4]), 8.15; with PC-3 (setting [5]) it was 8.26; in the data set with PC-3 (setting [6]), 8.21. In addition, the results for the pIC50 with PANC-1 (setting [4]), with PANC-1 (setting [5]) and in the data set with PANC-1 (setting [6]) were 8.38, 8.58 and 8.46, respectively. Also, the physical form stability entry in [1] was “stable”.
